Read-outs that look alike come from different tables or passages of the source. Each block holds one compound with its values, some of them ahead of it.
How the values were obtained:
[1] = Acid dissociation constant (pKa); type: physicochemical
[2] = tested on: bone marrow; test: Bone marrow hypocellularity, pathologist assessment of haematoxylin and eosin sections; type: in vivo, rat; settings: 25 mg/kg IV; day 5 and 9; FIG. 13
Experimental: Female nude rats were bred at AstraZeneca, and put into study at a minimum weight of 150 g. Animals were inoculated in the flank with SW620 human tumour cells and dosing started when tumours had reached 0.4-0.9 cm^3. Compounds were dosed intravenously (IV) at 5 ml/kg with either control, AZD1152 or AZD1152 hqpa nanoparticle formulation B or E. AZD1152 was dosed in tris buffer vehicle (days 1-4 IV, each dose at 25 mg/kg) and AZD1152 hqpa nanoparticle formulation was dosed in physiological saline (dosed 25 mg/kg on each of days 1 and 3 IV). At the time points indicated animals were sacrificed and tumour, blood and femur/bone marrow samples taken. Effects of the treatments on the tumour and the bone marrow were scored by a pathologist assessment of haematoxylin and eosin stained sections derived from the femur.
(§1) Rats were injected IV with BIND Placebo (0 mg/kg), or AZD1152/AZD1152 hqpa Formulation E/F1/F2 at 25 mg/kg at the times indicated and sacrificed at the times indicated.
Bone marrows samples were extracted from each animal. Firstly samples of bone marrow were processed for pathological assessment. […] Bone marrow integrity was scored by the pathologist. […]
Bone marrow samples were extracted from each animal and processed for pathological assessment. […] Bone marrow integrity was scored by the pathologist. […]

[3] = tested on: bone marrow; test: Bone marrow cellularity by FACS (total nucleated cells); type: in vivo, rat; settings: 25 mg/kg IV; FIG. 14
Experimental: as §1
Secondly bone marrow flushes taken to examine bone marrow cellularity by FACs. At termination bone marrow from each Femur was taken into 50% FBS and 50% PBS on ice. Cells were pelleted by centrifugation at 4° C. and re-suspended in PBS. Cells were pelleted again at 4° C. and re-suspended in PBS. 50 μl of LDS-751 (0.5 mg/ml in methanol) was added and cells vortexed. Finally the cells were filtered through a 50 micron filter into a FACS tube. Samples were analysed on a FACS Canto (Beckton Dickinson). A bone marrow hypocellularity is represented as a total of nucleated cells relative to untreated controls. The percentage cellularity of each bone marrow sample in each individual animal are shown. The dotted line represents the lowest percentage total nucleated cell value seen in animals receiving only vehicle (empty nanoparticle).

[4] = tested on: SW620 human tumour xenograft; test: SW620 anti-tumour study in male nude mouse; type: in vivo
Experimental: Male nude mice were bred at AstraZeneca. Animals were inoculated in the flank with SW620 human tumour cells, and then randomized onto study when tumours reached approximately 0.25 cm^3. AZD1152 was dosed in tris buffer vehicle at the concentration indicated. AZD1152 hqpa nanoparticle formulation E was dosed in physiological saline. Previous pre-clinical work and methodologies with AZD1152 are published in Wilkinson et al, Clinical Cancer Research 2007 (13) 3682. […] In this study AZD1152 was dosed on day 0-3 at 25 mg/kg (total 100 mg/kg). Formulation E was dosed at a variety of different schedules as described above.

[5] = tested on: histone H3 phosphorylation on Ser10 (pHH3), surrogate marker of Aurora B kinase activity; test: Tumour phospho-histone H3 (pHH3) biomarker in SW620 tumours by flow cytometry; type: in vivo, rat; settings: 24 hrs post single dose 25 mg/kg IV
Experimental: This experiment compares the effect of Formulation E, F1 and F2 on a phospho-histone H3 phosphorylation (pHH3) in SW620 tumours. AZD1152 was included as a positive control. The activity was measured as an inhibition of histone H3 phosphorylation on Ser^10 (pHH3 as a sensitive, highly dynamic surrogate marker of Aurora B kinase activity). Average level of pHH3 positivity [%] was calculated for the cells in G2/M phase of the cell cycle for each treatment group at 24 hrs and 96 hrs post 1st dose and compared to the pHH3 level observed for the cells in G2/M cell cycle phase that were extracted from the tumours treated with BIND Placebo (referred here as 100%). Statistical significance was calculated using Student t-test assuming unequal variances (*p<0.05, **p<0.01, ***p<001, n.s. P>0.05). […]
The activity was measured as an inhibition of histone H3 phosphorylation on Ser10 (pHH3 as a sensitive, highly dynamic surrogate marker of Aurora B kinase activity). Average level of pHH3 positivity [%] was calculated for the cells in G2/M phase of the cell cycle for each treatment group at 24, 48, 72, 96 and 120 hrs post 1 dose and compared to the pHH3 level observed for the cells in G2/M cell cycle phase that were extracted from the tumours treated with BIND Placebo (referred here as 100%). […]

[6] = reported (SciFinder); cited from earlier work
[7] = reported (SciFinder); cited from earlier work; remark: listed apart in the source

- pKa1 [1]: 5.7
- pKa2 [1]: 8.46
SMILES: CCN(CCO)CCCOc1ccc2c(Nc3cc(CC(=O)Nc4cccc(F)c4)[nH]n3)ncnc2c1 [AZD1152 hqpa, 2-(3-((7-(3-(ethyl(2-hydroxyethyl)amino)propoxy)quinazolin-4-yl)amino)-1H-pyrazol-5-yl)-N-(3-fluorophenyl)acetamide]

- bone marrow cellularity, total nucleated cells relative to untreated controls [3]: large impact on bone marrow
SMILES: CCN(CCCOc1ccc2c(Nc3cc(CC(=O)Nc4cccc(F)c4)n[nH]3)ncnc2c1)CCOP(=O)(O)O [AZD1152, 2-(ethyl(3-((4-((5-(2-((3-fluorophenyl)amino)-2-oxoethyl)-1H-pyrazol-3-yl)amino)quinazolin-7-yl)oxy)propyl)amino)ethyl dihydrogen phosphate]
- bone marrow hypocellularity score (0-4) [2]: large impact on bone marrow
- efficacy of IV 25 mg/kg for 4 days (100 mg/kg total dose) ([4]; SW620 xenograft model in rat and mouse): maximal efficacy
- dose at which maximum activity was achieved ([4]; total dose equivalent, SW620): 100 mg/kg
- proportion of pHH3-positive cells within G2/M phase ([5]; FIG. 12): maximally suppressed
- proportion of pHH3-positive cells within G2/M phase ([5]; FIG. 15): maximally suppressed

SMILES: O=C(O)c1cc2ccccc2c(Cc2c(O)c(C(=O)O)cc3ccccc23)c1O [pamoic acid, 4,4′-methylenebis[3-hydroxy-2-naphthoic acid]]
- pKa1 [6]: 2.67
- log P [7]: 6.169
